Test results published in patent US8188073B2, “Benzoxazines and related nitrogen-containing heterobicyclic compounds useful as mineralocorticoid receptor modulating agents” (Mitsubishi Tanabe Pharma Corporation, priority 2006, dated 2012).

Each compound was assayed against T1, mineralocorticoid receptors (MR) (Rattus norvegicus, UniProt P22199) (assay: binding assay using rat MR and 3H-aldosterone). Conditions: MR derived from rat kidney.
T1 construct: mineralocorticoid receptors (MR) derived form rat kidney; from tissue; host or cells: rat kidney
T1 sequence (P22199 1-981): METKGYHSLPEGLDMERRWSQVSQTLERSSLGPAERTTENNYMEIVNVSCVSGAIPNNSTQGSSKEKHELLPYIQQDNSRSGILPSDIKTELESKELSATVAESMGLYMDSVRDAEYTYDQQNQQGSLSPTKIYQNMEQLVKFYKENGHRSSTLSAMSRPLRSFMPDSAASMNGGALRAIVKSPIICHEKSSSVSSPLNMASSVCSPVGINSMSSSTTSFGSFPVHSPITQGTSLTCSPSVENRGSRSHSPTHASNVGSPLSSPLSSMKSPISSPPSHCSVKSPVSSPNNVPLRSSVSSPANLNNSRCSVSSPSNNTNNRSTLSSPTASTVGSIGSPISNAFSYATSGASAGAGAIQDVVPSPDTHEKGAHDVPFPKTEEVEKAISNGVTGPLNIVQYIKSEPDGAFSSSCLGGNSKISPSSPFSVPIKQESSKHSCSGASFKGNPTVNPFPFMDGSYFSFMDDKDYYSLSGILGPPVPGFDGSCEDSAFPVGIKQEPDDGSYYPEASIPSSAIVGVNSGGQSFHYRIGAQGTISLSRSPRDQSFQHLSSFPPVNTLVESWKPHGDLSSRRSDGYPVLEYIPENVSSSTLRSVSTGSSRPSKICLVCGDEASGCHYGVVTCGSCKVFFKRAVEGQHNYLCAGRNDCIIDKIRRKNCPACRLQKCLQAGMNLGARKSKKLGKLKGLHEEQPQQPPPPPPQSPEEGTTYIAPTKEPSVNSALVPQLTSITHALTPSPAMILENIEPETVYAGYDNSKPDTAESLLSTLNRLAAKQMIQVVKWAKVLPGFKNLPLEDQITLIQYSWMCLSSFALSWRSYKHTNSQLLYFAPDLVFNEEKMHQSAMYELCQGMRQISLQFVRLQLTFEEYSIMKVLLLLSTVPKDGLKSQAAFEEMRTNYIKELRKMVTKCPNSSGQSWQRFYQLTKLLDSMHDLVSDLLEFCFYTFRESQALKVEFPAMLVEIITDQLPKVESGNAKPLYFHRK
Procedure: (§1) Each biding assay was conducted in a similar manner as the procedure described in The Journal of Pharmacology and Experimental Therapeutics, 1987; 240:p. 650-656.
For example, in a binding assay using rat MR and ^3H-aldosterone, which was conducted in accordance with a manner as described in The Journal of Pharmacology and Experimental Therapeutics, 1987; 240: p. […] Therefore, the compound [I] of the present invention is useful as a medicament for prevention or treatment of various diseases associated with the receptor and/or aldosterone, such as cardiovascular diseases including hypertension and heart failure.

Ki [nM]	Compound
< 10000	CC1(C)Oc2cc([N+](=O)[O-])c(Cl)cc2N(c2ccc(F)cc2)C1=O [6-chloro-4-(4-fluorophenyl)-2,2-dimethyl-7-nitro-2H-1,4-benzoxizin-3(4H)-one]

Same assay, conditions: rat MR and 3H-aldosterone

IC50 [nM]	Compound
< 10000	CC1(C)Oc2cc(NS(C)(=O)=O)ccc2N(c2ccccc2)C1=O [N-(2,2-dimethyl-3-oxo-4-phenyl-3,4-dihydro-2H-1,4-benzoxazin-7-yl)methanesulfonamide]
< 10000	CS(=O)(=O)Nc1ccc2c(c1)OC(c1ccccc1)C(=O)N2c1ccccc1 (stereo not drawn) [N-(3-oxo-2,4-diphenyl-3,4-dihydro-2H-1,4-benzoxazin-7-yl)methane sulfonamide]

The compounds below were run against T2, Aldosterone Receptor (Rattus norvegicus, UniProt P22199) (assay: Aldosterone Receptor Binding Assay (Experiment 1; kidney cytosol fraction, [3H]aldosterone)). Conditions: [3H]aldosterone ca. 2 nM, 4° C. overnight, Ki by Cheng and Prusoff's equation.
T2 construct: centrifuged at 100,000×g for 1 hour to give a supernatant as a kidney cytosol fraction; from tissue; host or cells: kidney cytosol of adrenalectomised Sprague-Dawley male rats
T2 sequence (P22199 1-981): T1 sequence (P22199 1-981)
Parameters: species or system Sprague-Dawley male rats
Procedure: Experiment 1 [Aldosterone Receptor Binding Assay]
(1) Preparation of Kidney Cytosol Fraction:
Kidneys derived from post-adrenalectomy Sprague-Dawley male rats (7 weeks old) were homogenized in the following buffer solution and the homogenate was centrifuged at 100,000×g for 1 hour to give a supernatant as a kidney cytosol fraction (protein concentration: 15 mg/mL) for the present biding assay.
Composition of Buffer solution: 50 mM Tris-HCl (pH 7.5), 250 mM Sucrose, 50 mM Potassium chloride, 3 mM Magnesium chloride, 20 mM Sodium molybdate and 1 mM Mercaptoethanol
A mixture of 5 μL of a solution of each test compound in dimethylsulfoxide, 200 μL of kidney cytosol fraction, 50 μL of physiological saline (or 50 μL of unlabeled aldosterone solution (final concentration: 1 μM) and (50 μL of [^3H]aldosterone solution (ca. 2 nM) was incubated in a test tube at 4° C. overnight. Thereto was added 100 μL of dextrane-coated charcoal/10 mM Tris-HCl buffer and the mixture was incubated at 4° C. for 30 minutes. The reaction mixture was centrifuged at 3000 rpm for 10 minutes and to the supernatant (150 μL) was added 5 mL of a scintillator (Clearsol II, Nakarai Tesque). The radioactivity was measured by a liquid scintilation counter (TRI CARB 2200CA, Packard). […] Moreover, the dissociation constant (Ki) of each test compound was calculated on Cheng and Prusoff's equation (Ki=IC50/(1+[L]/Kd), wherein [L] is [^3H]aldosterone concentration and Kd is the affinity constant of aldosterone).

Ki [nM]	Compound
500 to 1000	CS(=O)(=O)Nc1ccc2c(c1)OC1(CCC1)C(=O)N2c1ccc(F)cc1 [Example 37]
< 500	CC1(C)Nc2cc(NS(C)(=O)=O)ccc2N(c2ccc(F)cc2)C1=O [Example 45, N-[1-(4-fluorophenyl)-3,3-dimethyl-2-oxo-1,2,3,4-tetrahydroquinoxalin-6-yl]methanesulfonamide]
< 500	CC1(C)Oc2cc(NS(C)(=O)=O)ccc2N(c2ccc(F)cc2)C1=S [Example 46, N-[4-(4-fluorophenyl)-2,2-dimethyl-3-thioxo-3,4-dihydro-2H-1,4-benzoxazin-7-yl]methanesulfonamide]
< 500	Cc1cc(F)ccc1N1C(=O)C(C)(C)Oc2cc(NS(C)(=O)=O)ccc21 [Example 50]
< 500	COc1cccc(N2C(=O)C(C)(C)Oc3cc(NS(C)(=O)=O)ccc32)c1 [Example 53]
< 500	COc1cc(N2C(=O)C(C)(C)Oc3cc(NS(C)(=O)=O)ccc32)ccc1F [Example 55, N-[4-(4-Fluoro-3-methoxyphenyl)-2,2-dimethyl-3-oxo-3,4-dihydro-2H-1,4-benzoxazin-7-yl]methanesulfonamide]
< 500	CC1(C)Oc2cc(NS(C)(=O)=O)ccc2N(c2ccncc2)C1=O [Example 64]
500 to 1000	CS(=O)(=O)Nc1ccc2c(c1)OCC(=O)N2c1ccc(F)c(Cl)c1 [Example 67]
< 500	COc1cc2c(cc1NS(C)(=O)=O)OC(C)(C)C(=O)N2c1ccc(F)cc1 [Example 101, N-[4-(4-Fluorophenyl)-6-methoxy-2,2-dimethyl-3-oxo-3,4-dihydro-2H-1,4-benzoxazin-7-yl]methanesulfonamide]

Second part, the compound before the results:

Compound	Ki [nM]
CS(=O)(=O)Nc1ccc2c(c1)OC(c1ccccc1)C(=O)N2c1ccc(Cl)cc1 (stereo not drawn) [Example 6]	< 500
CC1(C)Oc2cc(NS(C)(=O)=O)ccc2N(c2ccc(F)cc2)C1=O [Example 9, N-[4-(4-fluorophenyl)-2,2-dimethyl-3-oxo-3,4-dihydro-2H-1,4-benzoxazin-7-yl]methanesulfonamide]	< 500
CC1(C)Oc2cc(NS(C)(=O)=O)ccc2N(c2ccc(F)c(F)c2)C1=O [Example 10]	< 500
CC1(C)Oc2cc(NS(C)(=O)=O)ccc2N(c2ccc(Cl)cc2)C1=O [Example 11]	< 500
CC1(C)Oc2cc(NS(C)(=O)=O)ccc2N(Cc2ccccc2)C1=O [Example 19]	< 500

What follows are compounds tested against T3, androgen receptors (AR) (Rattus norvegicus, UniProt P15207) (assay: binding assay using androgen receptors derived from rat prostate and 3H-methyltrienorone). Conditions: AR derived from rat prostate.
T3 construct: androgen receptors (AR) derived form rat prostate; from tissue; host or cells: rat prostate
T3 sequence (P15207 1-902): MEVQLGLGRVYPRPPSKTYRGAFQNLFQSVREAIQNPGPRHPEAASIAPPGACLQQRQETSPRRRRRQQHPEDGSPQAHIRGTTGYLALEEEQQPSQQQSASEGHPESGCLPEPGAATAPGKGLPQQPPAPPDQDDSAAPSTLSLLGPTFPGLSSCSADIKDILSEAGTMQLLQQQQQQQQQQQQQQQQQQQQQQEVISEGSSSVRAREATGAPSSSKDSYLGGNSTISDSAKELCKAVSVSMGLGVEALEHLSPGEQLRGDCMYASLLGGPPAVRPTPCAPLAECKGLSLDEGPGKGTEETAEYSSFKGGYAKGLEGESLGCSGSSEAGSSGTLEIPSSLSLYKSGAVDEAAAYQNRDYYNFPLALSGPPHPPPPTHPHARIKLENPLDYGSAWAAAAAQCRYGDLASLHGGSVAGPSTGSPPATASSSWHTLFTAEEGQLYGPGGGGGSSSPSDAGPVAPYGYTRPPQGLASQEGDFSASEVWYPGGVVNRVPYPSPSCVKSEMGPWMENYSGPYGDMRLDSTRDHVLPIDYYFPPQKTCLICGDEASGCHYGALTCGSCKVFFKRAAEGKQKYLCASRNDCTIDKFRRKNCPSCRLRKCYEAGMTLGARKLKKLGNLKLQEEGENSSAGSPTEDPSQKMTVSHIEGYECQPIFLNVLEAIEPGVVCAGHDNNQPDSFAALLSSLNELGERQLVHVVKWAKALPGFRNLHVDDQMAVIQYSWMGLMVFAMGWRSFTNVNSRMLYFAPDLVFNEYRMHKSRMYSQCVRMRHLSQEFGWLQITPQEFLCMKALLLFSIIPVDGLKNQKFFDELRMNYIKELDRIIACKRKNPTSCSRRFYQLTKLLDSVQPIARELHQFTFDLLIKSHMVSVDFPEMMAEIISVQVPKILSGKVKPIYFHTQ
Procedure: as §1

Ki [nM]	Compound
< 10000	CC1(C)Oc2cc(N)ccc2N(c2ccc(F)c(F)c2)C1=O [7-amino-4-(3,4-difluorophenyl)-2,2-dimethyl-2H-1,4-benzoxizin-3(4H)-one]

Each compound was assayed against T4, glucocorticoid receptors (GR) (Rattus norvegicus, UniProt P06536) (assay: binding assay using glucocorticoid receptors derived from rat liver and 3H-dexamethazone). Conditions: GR derived from rat liver.
T4 construct: glucocorticoid receptors (GR) derived form rat liver; from tissue; host or cells: rat liver
T4 sequence (P06536 1-795): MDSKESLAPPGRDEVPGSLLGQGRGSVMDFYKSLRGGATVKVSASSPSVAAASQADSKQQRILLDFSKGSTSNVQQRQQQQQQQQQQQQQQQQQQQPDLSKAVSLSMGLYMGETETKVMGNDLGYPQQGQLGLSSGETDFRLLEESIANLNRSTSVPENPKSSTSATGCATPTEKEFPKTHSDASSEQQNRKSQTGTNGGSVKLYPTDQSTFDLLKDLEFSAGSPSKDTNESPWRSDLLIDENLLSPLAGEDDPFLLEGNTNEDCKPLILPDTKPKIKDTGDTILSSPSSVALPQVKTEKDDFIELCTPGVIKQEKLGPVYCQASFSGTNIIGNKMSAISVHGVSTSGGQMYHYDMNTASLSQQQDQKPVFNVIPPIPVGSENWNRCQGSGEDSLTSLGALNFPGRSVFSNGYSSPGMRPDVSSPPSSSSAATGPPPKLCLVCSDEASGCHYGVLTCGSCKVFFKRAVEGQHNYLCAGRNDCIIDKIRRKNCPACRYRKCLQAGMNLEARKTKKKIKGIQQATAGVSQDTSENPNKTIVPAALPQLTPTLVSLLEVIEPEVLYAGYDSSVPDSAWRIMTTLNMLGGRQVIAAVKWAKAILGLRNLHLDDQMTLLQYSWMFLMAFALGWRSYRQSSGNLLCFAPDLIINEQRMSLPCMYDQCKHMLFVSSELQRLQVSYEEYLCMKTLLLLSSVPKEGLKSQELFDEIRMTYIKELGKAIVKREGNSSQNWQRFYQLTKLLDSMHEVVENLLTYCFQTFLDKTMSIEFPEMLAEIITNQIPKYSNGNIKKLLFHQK
Procedure: as §1

Ki [nM]	Compound
< 10000	Cc1cc(N2C(=O)C(C)(C)Oc3cc([N+](=O)[O-])ccc32)ccc1F [4-(4-fluoro-3-methylphenyl)-2,2-dimethyl-7-nitro-2H-1,4-benzoxizin-3 (4H)-one]
< 10000	O=C1C(c2ccccc2)Oc2cc([N+](=O)[O-])ccc2N1c1ccc(F)cc1 (stereo not drawn) [4-(4-fluorophenyl)-7-nitro-2-phenyl-2H-1,4-benzoxizin-3(4H)-one]

Compound	Ki [nM]
Cc1ccc(N2C(=O)C(C)(C)Oc3cc([N+](=O)[O-])ccc32)cc1C(F)(F)F	< 10000
